From patent US9034871B2, “Compounds for Alzheimer's disease” (priority 2004, dated 2015)

test system: Aβ42; experiment: Detection of secreted Aβ42 with Biosource ELISA kit in H4 cells expressing APP695; type: cell-based; conditions: Ab42 lowering, cell based assay; read-out: Ab42 IC50
Experimental: The present invention provides compositions and methods for lowering Aβ42 levels. To test whether compounds and compositions are capable of modulating Aβ levels, a sandwich enzyme-linked immunosorbent assay (ELISA) is employed to measure secreted Aβ (Aβ42 and/or Aβ40) levels. In this example, H4 cells expressing wide type APP695 are seeded at 200,000 cells/per well in 6 well plates, and incubated at 37 degree C. with 5% CO2 overnight. Cells are treated with 1.5 ml medium containing vehicle (DMSO) or a test compound at 1.25 μM, 2.5 μM, 5.0 μM and 10.0 μM (as well as other concentration if desirable) concentration for 24 hours or 48 hours. The supernatant from treated cells is collected into eppendorf tubes and frozen at −80 degree C. for future analysis.
The amyloid peptide standard is reconstituted and frozen samples are thawed. The samples and standards are diluted with appropriate diluents and the plate is washed 4 times with Working Wash Buffer and patted dry on a paper towel. 100 μL per well of peptide standards, controls, and dilutions of samples to be analyzed is added. The plate is incubated for 2 hours while shaking on an orbital plate shaker at RT. The plate is then washed 4 times with Working Wash Buffer and patted dry on a paper towel. Detection Antibody Solution is poured into a reservoir and 100 μL /well of Detection Antibody Solution is immediately added to the plate. The plate is incubated at RT for 2 hours while shaking and then washed four times with Working Wash Buffer and patted dry on a paper towel. Secondary Antibody Solution is then poured into a reservoir and 100 μL /well of Secondary Antibody Solution is immediately added to the plate. The plate is incubated at RT for 2 hours with shaking, washed 5 times with Working Wash Buffer, and patted dry on a paper towel.
100 μL of stabilized chromogen is added to each well and the liquid in the wells begins to turn blue. The plate is incubated for 30 minutes at room temperature and in the dark. 100 μL of stop solution is added to each well and the plate is tapped gently to mix resulting in a change of solution color from blue to yellow. The absorbance of each well is read at 450 nm having blanked the plate reader against a chromogen blank composed of 100 μL each of stabilized chromogen and stop solution. The plate is read within 2 hours of adding the stop solution. The absorbance of the standards is plotted against the standard concentration and the concentrations of unknown samples and controls are calculated.
These compounds were synthesized via the indicated synthetic route. Ab42 IC50 (uM) refers to IC50 value for Ab42 lowering in e.g., the assay described in Example 6.

Compared with `O=C(O)c1ccc(-n2c(-c3ccccc3)cc3c2CCC(C(F)(F)F)C3)o1` (stereo not drawn) [5-(2-phenyl-5-trifluoromethyl 4,5,6,7-tetrahydroindol-1-yl)-furan-2-carboxylic acid], `O=C(O)c1ccc(-n2c(-c3ccccc3)cc3c2CC(C(F)(F)F)CC3)o1` (stereo not drawn) [5-(2-phenyl-6-trifluoromethyl 4,5,6,7-tetrahydroindol-1-yl)-furan-2-carboxylic acid] is 1.5-fold higher in IC50: 16.5 µM for the first, 25 µM for the second.

First: O=C(O)c1ccc(-n2c(-c3ccccc3)cc3c4ccccc4ccc32)o1 [5-(2-phenylbenzo[e]indol-3-yl)furan-2-carboxylic acid]
Second: O=C(O)c1ccc(-n2c(-c3cc(-c4ccccc4)no3)cc3c4ccccc4ccc32)o1 [5-[2-(3-phenylisoxazol-5-yl)-benzo[e]indol-3-yl] furan-2-carboxylic acid]
The IC50 of the first is 1.5-fold lower: 22 µM for the first, 33 µM for the second.

Compared with `O=C(O)c1ccc(-n2c(-c3ccccc3)cc3c2CCC(C2CCCCC2)C3)o1` (stereo not drawn) [5-(5-cyclohexyl-2-phenyl-4,5,6,7-tetrahydroindol-1-yl)-furan-2-carboxylic acid], `CC1CCc2c(cc(-c3ccccc3)n2-c2ccc(C(=O)O)o2)C1` (stereo not drawn) [5-(5-methyl-2-phenyl-4,5,6,7-tetrahydroindol-1-yl) furan-2-carboxylic acid] is higher in IC50: 40 µM for the first, > 100 µM for the second. The first is the more potent here.

Going from `COC(=O)c1ccc(-n2c(-c3ccccc3)cc3c2CCC(C(C)(C)C)C3)o1` (stereo not drawn) [5-(5-tertButyl-2-phenyl-4,5,6,7-tetrahydroindol-1-yl) furan-2-carboxylic acid methyl ester] to `CC(C)(C)C1CCc2c(cc(-c3ccccc3)n2-c2ccc(C(=O)O)o2)C1` (stereo not drawn) [5-(5-tertButyl-2-phenyl-4,5,6,7-tetrahydroindol-1-yl) furan-2-carboxylic acid], the IC50 falls from > 100 µM to 3.7 µM.

Compared with `CC1CCc2cc(-c3ccccc3)n(-c3ccc(C(=O)O)o3)c2C1` (stereo not drawn) [5-(6-methyl-2-phenyl-4,5,6,7-tetrahydroindol-1-yl) furan-2-carboxylic acid], `CCC(C)(C)C1CCc2c(cc(-c3ccccc3)n2-c2ccc(C(=O)O)o2)C1` (stereo not drawn) [5-[5-(1,1-dimethylpropyl)-2-phenyl-4,5,6,7-tetrahydroindol-1-yl]-furan-2-carboxylic acid] is lower in IC50: > 100 µM for the first, 5.1 µM for the second. The second is the more potent here.

First: O=C(O)c1ccc(-n2c(-c3ccc(Cl)c(Cl)c3)cc3c2CCCC3C(F)(F)F)o1 (stereo not drawn) [5-[2-(3,4-dichlorophenyl)-4-trifluoromethyl-4,5,6,7-tetrahydroindol-1-yl]-furan-2-carboxylic acid]
Second: O=C(O)c1ccc(-n2c(-c3ccc(Cl)c(Cl)c3)cc3c2CCC(C(F)(F)F)C3)o1 (stereo not drawn) [5-[2-(3,4-dichlorophenyl)-5-trifluoromethyl 4,5,6,7-tetrahydroindol-1-yl]-furan-2-carboxylic acid]
The IC50 of the first is 4.6-fold higher: 7.36 µM for the first, 1.6 µM for the second. The second is the more potent here.

`O=C(O)c1ccc(-n2c(-c3ccc(Cl)c(Cl)c3)cc3c2CC(C(F)(F)F)CC3)o1` (stereo not drawn) [5-[2-(3,4-dichlorophenyl)-6-trifluoromethyl-4,5,6,7-tetrahydroindol-1-yl]-furan-2-carboxylic acid] and `CC(C)(C)C1CCc2c(cc(-c3ccc(Cl)c(Cl)c3)n2-c2ccc(C(=O)O)o2)C1` (stereo not drawn) [5-[5-tButyl-2-(3,4-dichlorophenyl)-4,5,6,7-tetrahydroindol-1-yl] furan-2-carboxylic acid] are within 1.5-fold of each other in IC50: 8.9 µM for the first, 11.7 µM for the second.

First: O=C(O)c1ccc(-n2c(-c3ccc(Cl)c(Cl)c3)cc3c4ccccc4ccc32)o1 [5-[2-(3,4-dichlorophenyl)-benzo[e]indol-3-yl]-furan-2-carboxylic acid]
Second: O=C(O)c1ccc(-n2c(-c3ccc(C(F)(F)F)cc3)cc3c4ccccc4ccc32)o1 [5-[2-(4-trifluoromethylphenyl)-benzo[e]indol-3-yl]-furan-2-carboxylic acid]
The IC50 of the first is 3-fold lower: 7 µM for the first, 21 µM for the second. The first is the more potent here.

`O=C(O)c1coc(Cn2c(-c3cc(-c4ccccc4)no3)cc3c2CCc2ccccc2-3)c1` [5-[2-(3-phenylisoxazol-5-yl)-4,5-dihydrobenzo[e]indol-3-ylmethyl] furan-3-carboxylic acid] and `O=C(O)c1coc(Cn2c(-c3cc(-c4ccccc4)no3)cc3c4ccccc4ccc32)c1` [5-[2-(3-phenylisoxazol-5-yl)-benzo[e]indol-3-ylmethyl] furan-3-carboxylic acid] cannot be ordered by IC50: > 100 µM for the first, > 100 µM for the second.

Compared with `O=C(O)c1ccc(-n2c(-c3ccc(N4CCOCC4)cc3)cc3c2CCC(C(F)(F)F)C3)o1` (stereo not drawn) [5-[2-(4-morpholin-4-yl-phenyl)-5-trifluoromethyl-4,5,6,7-tetrahydroindol-1-yl]-furan-2-carboxylic acid], `CC(C)(C)C1CCc2c(cc(-c3ccc(C(F)(F)F)cc3)n2-c2ccc(C(=O)O)o2)C1` (stereo not drawn) [5-[5-tButyl-2-(4-trifluoromethylphenyl)-4,5,6,7-tetrahydroindol-1-yl] furan-2-carboxylic acid] is 4.9-fold lower in IC50: 68 µM for the first, 14 µM for the second.

First: CCC(C)(C)C1CCc2c(cc(-c3cc4ccccc4o3)n2-c2ccc(C(=O)O)o2)C1 (stereo not drawn) [5-[2-benzofuran-2-yl-5-(1,1-dimethylpropyl) 4,5,6,7-tetrahydroindol-1-yl]-furan-2-carboxylic acid]
Second: CC(C)(C)C1CCc2c(cc(-c3ccccc3)n2-c2nnc[nH]2)C1 (stereo not drawn) [5-tButyl-2-phenyl-1-(4H-[1,2,4]triazol-3-yl)-4,5,6,7-tetrahydro-1H-indole]
The IC50 of the first is 3.5-fold lower: 18 µM for the first, 63 µM for the second.

same assay, conditions: IC50 value for Ab42 lowering in e.g. the assay described in Example 6; read-out: Ab42 IC50

In order of falling IC50:
1. O=C(O)c1cccc(-n2c(-c3ccccc3)cc3ccccc32)c1 [Compound 17, 3-(2-phenylindol 1-yl) benzoic acid]  55 µM
2. O=C(O)C1CCCC(n2c(-c3ccccc3)cc3c4ccccc4ccc32)C1 (stereo not drawn) [Compound 66, 3-(2-phenylbenzo[e]indol-3-yl) cyclohexane carboxylic acid]  54 µM
3. O=C(O)c1cccc(-n2c(-c3ccccc3)cc3c2CCC(c2ccccc2)C3)c1 (stereo not drawn) [Compound 71, 3-(2,5-diphenyl 4,5,6,7-tetrahydroindol-1-yl) benzoic acid]  50 µM
4. O=C(O)c1ccc(-c2cc3c(n2-c2ccccc2)CCc2ccccc2-3)cc1 [Compound 69, 4-(3-phenyl-4,5-dihydro-3H-benzo[e]indol-2-yl) benzoic acid]  45 µM
5. O=C(O)CCCn1c(-c2ccccc2)cc2c1CCc1ccccc1-2 [Compound 67, 4-(2-phenyl-4,5-dihydrobenzo[e]indol-3-yl) butyric acid]  35 µM
6. O=C(O)CCCn1c(-c2ccccc2)cc2c3ccccc3ccc21 [Compound 68, 4-(2-phenyl-benzo[e]indol-3-yl) butyric acid]  31 µM
7. O=C(O)CCCc1ccc(-n2c(-c3ccccc3)cc3c2CCCC3)cc1 [Compound 86, 4-[4-(2-phenyl 4,5,6,7-tetrahydroindol-1-yl)-phenyl] butyric acid]  30 µM
8. c1ccc(-c2cc3c(n2-c2cccc(-c4nn[nH]n4)c2)CCc2ccccc2-3)cc1 [Compound 63, 2-phenyl-3-[3-(2H-tetrazol-5-yl)-phenyl]-4,5-dihydro-3H-benzo[e]indole]  24 µM
9. CC(C)(C)C1CCc2c(cc(-c3ccccc3)n2-c2cccc(CCC(=O)O)c2)C1 (stereo not drawn) [Compound 85, 3-[3-(5-tert-Butyl-2-phenyl 4,5,6,7-tetrahydroindol-1-yl)-phenyl] propionic acid]  20 µM
10. O=C(O)c1cccc(-n2c(-c3ccccc3)cc3c4ccccc4ccc32)c1 [Compound 87, 3-(2-phenylbenzo[e]indol-3-yl) benzoic acid]  12 µM
11. CC(C)(C)C1CCc2c(cc(-c3ccccc3)n2-c2cccc(C(=O)O)c2)C1 (stereo not drawn) [Compound 34, 3-(5-tert-butyl-2-phenyl-4,5,6,7-tetrahydroindol-1-yl)benzoic acid]  8 µM
